How the values were obtained:
IRAK4 = IRAK4 (Homo sapiens (Human), UniProt Q9NWZ3); test: IRAK4 Inhibition Assay; assay type: biochemical; conditions: ATP 500 μM; IRAK4 0.6 nM
Method in brief: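 Readout: electrophoretic (LabChip) separation of fluorescent peptide substrate from phosphorylated product after EDTA quench. Reactions ran 60 min at room temperature with 0.6 nM IRAK4, 1.5 μM peptide and 500 μM ATP; inhibition referenced to no-enzyme (100%) and vehicle (0%) controls.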

[1] = test system: Human whole blood stimulated with a TLR2 agonist (lipoteichoic acid), IL-6 levels; test: IRAK4 Whole Blood Assay; assay type: cell-based; conditions: lipoteichoic acid 10 μg/mL
Method in brief: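 IL-6 was quantified by cytometric bead assay in supernatants of human blood (ACD-A) stimulated for 5 h with lipoteichoic acid at 10 μg/mL final. Compound exposure preceded stimulation for 60 min at 37 °C, 5% CO2.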

Sequence of IRAK4 (Q9NWZ3 whole entry, species assumed): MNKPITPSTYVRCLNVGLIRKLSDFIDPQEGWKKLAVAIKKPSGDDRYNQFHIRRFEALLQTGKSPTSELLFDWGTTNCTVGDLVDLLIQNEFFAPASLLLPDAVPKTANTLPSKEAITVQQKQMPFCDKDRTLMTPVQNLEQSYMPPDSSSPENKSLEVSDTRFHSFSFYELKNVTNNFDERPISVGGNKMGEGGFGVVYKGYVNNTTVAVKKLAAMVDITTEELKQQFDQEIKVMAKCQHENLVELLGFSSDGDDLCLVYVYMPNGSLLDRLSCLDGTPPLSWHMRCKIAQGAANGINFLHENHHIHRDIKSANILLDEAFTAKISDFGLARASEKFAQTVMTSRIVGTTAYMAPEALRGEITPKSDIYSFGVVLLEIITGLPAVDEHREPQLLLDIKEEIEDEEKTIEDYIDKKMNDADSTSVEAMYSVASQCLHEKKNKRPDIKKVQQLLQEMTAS

| Structure (SMILES) | IC50 (IRAK4) [nM] | EC50 [1] [nM] | EC50 ([1]; Homo sapiens) [nM] |
| --- | --- | --- | --- |
| CC(=O)N1CCC(n2cc(-c3cnc(-n4ncc5cc(C#N)cnc54)cc3NC(C)C)nn2)C1 (stereo not drawn) [Example 158, 1-(5-(1-(1-acetylpyrrolidin-3-yl)-1H-1,2,3-triazol-4-yl)-4-(isopropylamino)pyridin-2-yl)-1H-pyrazolo[3,4-b]pyridine-5-carbonitrile] | 2 | 520 | – |
| CCCCc1cn(-c2cnc(-n3ncc4cc(C#N)cnc43)cc2NC(C)C)nn1 [Example 320, 1-(5-(4-butyl-1H-1,2,3-triazol-1-yl)-4-(isopropylamino)pyridin-2-yl)-1H-pyrazolo[3,4-b]pyridine-5-carbonitrile] | 3 | – | 930 |
| CC(C)Nc1cc(-n2ccc3cncnc32)ncc1-c1cn(CCCCCN)nn1 [Example 5, 5-(1-(5-aminopentyl)-1H-1,2,3-triazol-4-yl)-N-isopropyl-2-(7H-pyrrolo[2,3-d]pyrimidin-7-yl)pyridin-4-amine] | 3 | – | 2130 |
| CC(C)Nc1cc(-n2ncc3cc(C#N)cnc32)ncc1-c1cn(CC(F)F)cn1 [Example 226, 1-(5-(1-(2,2-difluoroethyl)-1H-imidazol-4-yl)-4-(isopropylamino)pyridin-2-yl)-1H-pyrazolo[3,4-b]pyridine-5-carbonitrile] | 16 | – | 1480 |
| CC(C)Nc1cc(-n2ncc3cc(C#N)cnc32)ncc1-c1cn(CCCN)nn1 [Example 171, 1-(5-(1-(3-aminopropyl)-1H-1,2,3-triazol-4-yl)-4-(isopropylamino)pyridin-2-yl)-1H-pyrazolo[3,4-b]pyridine-5-carbonitrile] | 6 | – | 1160 |
| CC(C)Nc1cc(-n2ncc3cc(C#N)cnc32)ncc1-c1cn(CCCN2CCCC2)nn1 [Example 127, 1-(4-(isopropylamino)-5-(1-(3-(pyrrolidin-1-yl)propyl)-1H-1,2,3-triazol-4-yl)pyridin-2-yl)-1H-pyrazolo[3,4-b]pyridine-5-carbonitrile] | 10 | – | 2950 |
| CC(C)Nc1cc(-n2ncc3cc(C#N)cnc32)ncc1-c1cn(CC2COC2)cn1 [Example 236, 1-(4-(isopropylamino)-5-(1-(oxetan-3-ylmethyl)-1H-imidazol-4-yl)pyridin-2-yl)-1H-pyrazolo[3,4-b]pyridine-5-carbonitrile] | 11 | – | 990 |
| CC(C)Nc1cc(-n2ncc3cc(C#N)cnc32)ncc1-c1cc(C2CNC2)no1 [Example 397, 1-(5-(3-(azetidin-3-yl)isoxazol-5-yl)-4-(isopropylamino)pyridin-2-yl)-1H-pyrazolo[3,4-b]pyridine-5-carbonitrile] | 5 | – | 460 |
| CC(=O)N1CCC(c2cn(-c3cnc(-n4ncc5cc(C#N)cnc54)cc3NC(C)C)nn2)CC1 [Example 335, 1-(5-(4-(1-acetylpiperidin-4-yl)-1H-1,2,3-triazol-1-yl)-4-(isopropylamino)pyridin-2-yl)-1H-pyrazolo[3,4-b]pyridine-5-carbonitrile] | 6 | – | 630 |
| CCc1cn(-c2cnc(-n3ncc4cc(C#N)cnc43)cc2NC(C)C)nn1 [Example 325, 1-(5-(4-ethyl-1H-1,2,3-triazol-1-yl)-4-(isopropylamino)pyridin-2-yl)-1H-pyrazolo[3,4-b]pyridine-5-carbonitrile] | 16 | – | 990 |
| CC(C)Nc1cc(-n2ncc3cc(C#N)cnc32)ncc1-c1cn([C@H]2CCN(C(=O)c3ccncc3)C[C@H]2O)nn1 [Example 185, 1-(5-(1-((3R,4S)-3-hydroxy-1-isonicotinoylpiperidin-4-yl)-1H-1,2,3-triazol-4-yl)-4-(isopropylamino)pyridin-2-yl)-1H-pyrazolo[3,4-b]pyridine-5-carbonitrile] | 8 | – | 1040 |
| CCS(=O)(=O)N1CCC(c2cn(-c3cnc(-n4ncc5cc(C#N)cnc54)cc3NC(C)C)nn2)CC1 [Example 346, 1-(5-(4-(1-(ethylsulfonyl)piperidin-4-yl)-1H-1,2,3-triazol-1-yl)-4-(isopropylamino)pyridin-2-yl)-1H-pyrazolo[3,4-b]pyridine-5-carbonitrile] | 6 | – | 460 |
| CC(C)Nc1cc(-n2ncc3cc(C#N)cnc32)ncc1-c1cc(CCC(C)(C)O)no1 [Example 426, 1-(5-(3-(3-hydroxy-3-methylbutyl)isoxazol-5-yl)-4-(isopropylamino)pyridin-2-yl)-1H-pyrazolo[3,4-b]pyridine-5-carbonitrile] | 1 | – | 340 |
| CC(C)Nc1cc(-n2ncc3cc(C#N)cnc32)ncc1-c1cn(CCCCCN)nn1 [Example 114, 1-(5-(1-(5-aminopentyl)-1H-1,2,3-triazol-4-yl)-4-(isopropylamino)pyridin-2-yl)-1H-pyrazolo[3,4-b]pyridine-5-carbonitrile] | 3 | – | 870 |
| CC(C)Nc1cc(-n2cnc3cc(C#N)cnc32)ncc1-c1cn(C[C@H](C)O)nn1 [Example 69, (S)-3-(5-(1-(2-hydroxypropyl)-1H-1,2,3-triazol-4-yl)-4-(isopropylamino)pyridin-2-yl)-3H-imidazo[4,5-b]pyridine-6-carbonitrile] | 10 | – | 1370 |
| CC(C)Nc1cc(-n2ncc3cc(C#N)cnc32)ncc1-n1cc(C2CCCC2)nn1 [Example 266, 1-(5-(4-cyclopentyl-1H-1,2,3-triazol-1-yl)-4-(isopropylamino)pyridin-2-yl)-1H-pyrazolo[3,4-b]pyridine-5-carbonitrile] | 14 | – | 520 |
| CCn1cc(-c2cnc(-n3ncc4cc(Cl)cnc43)cc2NC(C)C)nn1 [Example 39, 2-(5-chloro-1H-pyrazolo[3,4-b]pyridin-1-yl)-5-(1-ethyl-1H-1,2,3-triazol-4-yl)-N-isopropylpyridin-4-amine] | 14 | – | 4300 |
| CC(C)Nc1cc(-n2ncc3cc(C#N)cnc32)ncc1-c1cn([C@@H]2CCN(S(C)(=O)=O)C[C@H]2OS(C)(=O)=O)nn1 (single isomer, unassigned) [Example 202] | 5 | – | 950 |
| CC(C)Nc1cc(-n2ncc3cc(C#N)cnc32)ncc1-c1cn([C@H]2CCN(S(C)(=O)=O)C[C@H]2OS(C)(=O)=O)nn1 [Example 182, (3R,4S)-4-(4-(6-(5-cyano-1H-pyrazolo[3,4-b]pyridin-1-yl)-4-(isopropylamino)pyridin-3-yl)-1H-1,2,3-triazol-1-yl)-1-(methylsulfonyl)piperidin-3-yl methanesulfonate] | 5 | – | 750 |
| CC(C)Nc1cc(-n2ncc3cc(C#N)cnc32)ncc1-c1cn(C2CN(C(=O)C(C)(C)C)C2)nn1 [Example 146, 1-(4-(isopropylamino)-5-(1-(1-pivaloylazetidin-3-yl)-1H-1,2,3-triazol-4-yl)pyridin-2-yl)-1H-pyrazolo[3,4-b]pyridine-5-carbonitrile] | 3 | – | 1090 |
| COCCn1cc(-c2cnc(-n3ncc4cc(C#N)cnc43)cc2NC(C)C)nn1 [Example 121, 1-(4-(isopropylamino)-5-(1-(2-methoxyethyl)-1H-1,2,3-triazol-4-yl)pyridin-2-yl)-1H-pyrazolo[3,4-b]pyridine-5-carbonitrile] | 6 | – | 1740 |
